pKi: −log10 of the molar value. Active and inactive are the calls of the source. No cut-off for these calls is given here.
Assays:
[1] = Oral bioavailability in rat; format: ADME, organism-based; settings: in vivo
[2] = Plasma clearance in dog; format: ADME, organism-based, Canis lupus familiaris
[3] = Half life in rat; format: ADME, organism-based; settings: in vivo
[4] = Half life in dog; format: ADME, organism-based, Canis lupus familiaris; settings: in vivo
[5] = biological target: T1, GABA-A receptor; alpha-1/beta-3/gamma-2 (Homo sapiens, UniProt P14867+P18507+P28472); assay: Displacement of [3H]-Ro15-1788 from human recombinant GABAA alpha1 in combination with beta-3-gamma-2 expressed in L(tk-) cells; format: cell-based
T1 sequence (P14867 whole entry): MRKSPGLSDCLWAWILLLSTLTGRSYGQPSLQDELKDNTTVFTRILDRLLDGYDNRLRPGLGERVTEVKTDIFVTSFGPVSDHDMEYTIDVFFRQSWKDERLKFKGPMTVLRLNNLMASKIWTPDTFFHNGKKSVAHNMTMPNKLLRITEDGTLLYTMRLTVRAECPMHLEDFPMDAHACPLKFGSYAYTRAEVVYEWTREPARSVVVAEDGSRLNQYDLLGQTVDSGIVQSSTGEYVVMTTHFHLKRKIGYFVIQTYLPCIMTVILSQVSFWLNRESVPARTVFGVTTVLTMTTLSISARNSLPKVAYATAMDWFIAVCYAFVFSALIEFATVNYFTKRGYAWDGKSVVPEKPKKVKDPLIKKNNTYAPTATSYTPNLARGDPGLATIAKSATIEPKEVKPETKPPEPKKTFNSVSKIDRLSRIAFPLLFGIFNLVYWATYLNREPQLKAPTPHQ
T1 sequence (P18507 whole entry): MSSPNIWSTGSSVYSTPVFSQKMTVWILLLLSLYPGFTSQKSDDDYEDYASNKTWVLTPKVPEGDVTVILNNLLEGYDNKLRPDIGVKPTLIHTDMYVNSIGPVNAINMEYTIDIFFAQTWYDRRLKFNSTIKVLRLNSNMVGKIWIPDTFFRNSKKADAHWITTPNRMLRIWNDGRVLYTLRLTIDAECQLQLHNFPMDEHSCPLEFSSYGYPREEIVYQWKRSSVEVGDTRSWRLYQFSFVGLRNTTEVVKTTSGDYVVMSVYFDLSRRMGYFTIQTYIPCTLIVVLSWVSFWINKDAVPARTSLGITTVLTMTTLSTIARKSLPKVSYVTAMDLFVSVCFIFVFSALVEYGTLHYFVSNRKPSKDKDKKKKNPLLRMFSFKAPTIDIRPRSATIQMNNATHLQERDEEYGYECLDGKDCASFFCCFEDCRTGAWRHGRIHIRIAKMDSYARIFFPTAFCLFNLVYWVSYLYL
T1 sequence (P28472 whole entry): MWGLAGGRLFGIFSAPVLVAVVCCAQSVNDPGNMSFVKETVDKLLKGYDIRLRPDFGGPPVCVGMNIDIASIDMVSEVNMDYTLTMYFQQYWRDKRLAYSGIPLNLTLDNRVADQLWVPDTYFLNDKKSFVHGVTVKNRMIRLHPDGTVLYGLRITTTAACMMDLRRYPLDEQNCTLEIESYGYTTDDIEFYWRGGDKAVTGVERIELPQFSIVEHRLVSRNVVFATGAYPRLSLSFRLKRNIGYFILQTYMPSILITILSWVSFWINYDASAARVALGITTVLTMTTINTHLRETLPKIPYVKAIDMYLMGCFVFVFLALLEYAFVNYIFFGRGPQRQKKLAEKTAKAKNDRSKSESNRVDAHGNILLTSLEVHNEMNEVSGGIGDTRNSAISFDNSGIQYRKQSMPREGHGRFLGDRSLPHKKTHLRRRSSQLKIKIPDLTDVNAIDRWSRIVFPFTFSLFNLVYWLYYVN

[6] = biological target: T2, GABA-A receptor; alpha-2/beta-3/gamma-2 (Homo sapiens, UniProt P18507+P28472+P47869); assay: Displacement of [3H]-Ro15-1788 from human recombinant GABAA alpha2 in combination with beta3gamma2 expressed in L(tk-) cells; format: cell-based
T2 sequence (P18507 whole entry): T1 sequence (P18507 whole entry)
T2 sequence (P28472 whole entry): T1 sequence (P28472 whole entry)
T2 sequence (P47869 whole entry): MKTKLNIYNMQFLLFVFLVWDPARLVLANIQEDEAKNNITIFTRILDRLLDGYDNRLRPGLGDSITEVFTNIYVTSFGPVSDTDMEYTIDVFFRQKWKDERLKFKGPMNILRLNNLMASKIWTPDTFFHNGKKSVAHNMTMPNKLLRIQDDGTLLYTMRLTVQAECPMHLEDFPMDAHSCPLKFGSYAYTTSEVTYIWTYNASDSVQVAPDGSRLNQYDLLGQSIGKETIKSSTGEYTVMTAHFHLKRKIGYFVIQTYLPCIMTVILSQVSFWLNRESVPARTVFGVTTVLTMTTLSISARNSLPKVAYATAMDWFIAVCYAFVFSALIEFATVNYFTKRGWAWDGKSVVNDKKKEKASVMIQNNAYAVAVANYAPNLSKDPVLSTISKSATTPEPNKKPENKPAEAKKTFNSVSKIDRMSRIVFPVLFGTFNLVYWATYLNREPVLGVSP

[7] = biological target: T3, GABA-A receptor; alpha-5/beta-3/gamma-2 (Homo sapiens, UniProt P18507+P28472+P31644); assay: Displacement of [3H]Ro-151788 from human recombinant GABAA alpha5 in combination with beta3gamma2 expressed in L(tk-) cells; format: cell-based
T3 sequence (P18507 whole entry): T1 sequence (P18507 whole entry)
T3 sequence (P28472 whole entry): T1 sequence (P28472 whole entry)
T3 sequence (P31644 whole entry): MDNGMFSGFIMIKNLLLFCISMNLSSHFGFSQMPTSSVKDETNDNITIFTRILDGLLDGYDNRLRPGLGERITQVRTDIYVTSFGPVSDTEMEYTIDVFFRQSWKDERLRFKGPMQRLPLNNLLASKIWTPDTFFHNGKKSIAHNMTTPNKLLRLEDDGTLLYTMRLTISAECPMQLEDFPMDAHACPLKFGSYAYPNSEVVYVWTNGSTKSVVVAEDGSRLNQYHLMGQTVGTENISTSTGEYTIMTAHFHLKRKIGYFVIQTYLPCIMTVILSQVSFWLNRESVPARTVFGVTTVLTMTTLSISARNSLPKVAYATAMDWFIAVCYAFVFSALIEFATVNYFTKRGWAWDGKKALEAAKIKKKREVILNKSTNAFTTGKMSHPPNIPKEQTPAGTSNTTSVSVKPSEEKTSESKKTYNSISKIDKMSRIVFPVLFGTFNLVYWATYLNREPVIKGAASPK

[8] = biological target: GABA-A receptor; alpha-1/beta-3/gamma-2 (Homo sapiens) (UniProt P14867+P18507+P28472); assay: Efficacy against human recombinant GABAA alpha-1 in combination with beta3gamma2 expressed in L(tk-) cells by whole cell patch clamp method; format: functional, cell-based
[9] = biological target: GABA-A receptor; alpha-5/beta-3/gamma-2 (Homo sapiens) (UniProt P18507+P28472+P31644); assay: Efficacy against human recombinant GABAA alpha5 in combination with beta3gamma2 expressed in L(tk-) cells by whole cell patch clamp method; format: functional, cell-based
Rattus norvegicus = assay: Effect on activity impairment in rat chain pulling assay at 30 mg/kg, po; format: functional, organism-based; set-up: dose 30 mg/kg
Squirrel monkey = assay: Anxiolytic activity in squirrel monkey conditioned emotional response test at 3 mg/kg, po; format: functional, organism-based; set-up: dose 3 mg/kg; settings: Saimiri sciureus

Row | bioavailability [1] [%] | clearance [2] [mL/min/kg] | half-life [3] [h] | half-life [4] [h] | pKi [5] | pKi [6] | pKi [7] | Efficacy [8] [%] | Efficacy [9] [%] | Structure (SMILES) | Activity (Rattus norvegicus) | Activity (Squirrel monkey)
1 | 77 | 8.2 | 1.7 | 0.7 | 9.07 | 8.43 | 9.28 | 6.2 | 20 | CC(C)(O)c1ccn2c(-c3ccc(F)c(-c4cccnc4)c3)cnc2n1 | inactive | Active
2 | 53 | 2.9 | 7.3 | 32 | 8.92 | 9.00 | 9.30 | -2 | 2 | N#Cc1cc(F)ccc1-c1cc(-c2cnc3nc(C(F)(F)F)ccn23)ccc1F | inactive | Active
